The source of these data is ChEMBL document CHEMBL1150991, “Comparative molecular field analysis of benzopyran-4-carbothioamide potassium channel openers” (Bioorg Med Chem Lett, 1994).

The species entered for test [1] is Rattus norvegicus. Put plainly: Molar concentration required to relax rat aorta precontracted with 30 mM KCL by 50% of intrinsic activity (calculated). Type of test: functional.
The species named for test [2] is Rattus norvegicus. Put plainly: Molar concentration required to relax rat aorta precontracted with 30 mM KCL by 50% of intrinsic activity. Type of test: functional.

For orientation: EC50 means the concentration that produces a half-maximal response. As to `C/N=C(/S)C1=CC(C)(C)Oc2ccc(S(C)(=O)=O)cc21`, the EC50 in the test filed under Rattus norvegicus [1] was 0.49 µM.

In the case of `C/N=C(/S)C1=CC(C)(C)Oc2ccc(OC(F)(F)F)cc21`, the EC50 in the test listed under Rattus norvegicus [1] is 0.00398 µM.

For `C/N=C(/S)C1=CC(C)(C)Oc2ccc([N+](=O)[O-])cc21`, the EC50 in the test filed under Rattus norvegicus [1] is 0.00129 µM.

Regarding `C/N=C(/S)C1=CC(C)(C)Oc2ccc(C#N)cc21`, in the test listed under Rattus norvegicus [1], the EC50 was 0.0214 µM.

Consider `CCc1ccc2c(c1)C(/C(S)=N\C)=CC(C)(C)O2`, for which, in the test filed under Rattus norvegicus [1], the EC50 is 0.282 µM.

For the molecule `C/N=C(/S)C1=CC(C)(C)Oc2ccc(Br)cc21`, the EC50 in the test filed under Rattus norvegicus [1] was 0.0151 µM.

With `C/N=C(/S)C1=CC(C)(C)Oc2ccccc21`, in the test filed under Rattus norvegicus [1], the EC50 was 4.47 µM.

Turning to `C/N=C(/S)C1=CC(C)(C)Oc2ccc(S(=O)(=O)c3ccccc3)cc21`, the EC50 in the test filed under Rattus norvegicus [1] was 0.0195 µM.

For `C/N=C(/S)C1=CC(C)(C)Oc2ccc(C(F)(F)C(F)(F)F)cc21`, in the test filed under Rattus norvegicus [1], the EC50 was 0.0117 µM.

`C/N=C(/S)C1=CC(C)(C)Oc2ccc(C(F)(F)F)cc21`: in the test listed under Rattus norvegicus [1], the EC50 is 0.00219 µM.

As to `CNC(=S)C1=CC(C)(C)Oc2ccc(OC)cc21`, the EC50 in the test filed under Rattus norvegicus [1] is 0.457 µM.

With `CNC(=S)C1=CC(C)(C)Oc2ccc(C(=O)OC)cc21`, the EC50 is 0.0955 µM in the test filed under Rattus norvegicus [2] and 0.0851 µM in the test filed under Rattus norvegicus [1].

As for `C/N=C(/S)C1=CC(C)(C)Oc2ccc(Cl)cc21`, the EC50 in the test filed under Rattus norvegicus [1] was 0.0288 µM.
